Where two headings read alike, the source gives them in different places.
Legend:
[1] = system: erythrocytes; test: Erythrocyte deformability (filtration through 5 µm filter) after oral administration; type: in vivo, male rats of Wistar line; conditions: 30 mg/kg, p.o.; blood collected 90 minutes after administration; number of filtered erythrocytes
Method: In this experiment, 9-week-old male rats of Wistar line (5 to 6 individuals per one group) were used after rearing them for 1 week with normal feed. After 24 hours of fasting, each test drug was administered orally and, 90 minutes thereafter, blood sample was collected from lower abdominal vena cava of each rat under anesthesia with Nembutal® (1 ml/kg, i.p.). Blood samples obtained in this way were checked for their blood clotting time and erythrocyte deformability.
Measuring procedures are as follows.
Erythrocyte deformability ... The collected blood is extruded from a syringe with a constant flow of He in a holder equipped with a filter (5 µm). Weight of blood and the number of erythrocytes filtered during a fixed time are measured and the deformability is expressed based on the number of filtered erythrocytes. The results of these measurements are shown respectively in Tables 11 and 12.

[2] = system: male mice of ddY line; test: Survival time under hypoxia (aeration with 96% nitrogen and 4% oxygen); type: in vivo; conditions: 50 mg/kg, i.p., 60 minutes before aeration with 96% nitrogen and 4% oxygen; time to respiratory arrest
Method: In this experiment, 5 to 6-week-old male mice of ddY line (10 individuals per one group) were used after fasting treatment for 24 hours.
Each compound obtained in the present invention was administered intraperitoneally. After 60 minutes of the administration, each mouse was transferred separately into a transparent vessel (capacity, 1,000 ml) equipped with an air exit, and the vessel was aerated with a mixed gas consisting of 96% nitrogen and 4% oxygen at an aeration rate of 5 ℓ/min.
All tested mice died within 180 seconds after the commencement of the gas mixture aeration. Terminal respiration was observed several times prior to the respiratory arrest. Survival time of the control group was roughly in the range of from 96 to 111 seconds.

[3] = system: male mice of ddY line; test: Blood oxygen and carbon dioxide partial pressure; type: in vivo; conditions: 20 mg/kg, i.p.; blood from abdominal aorta 60 minutes after administration
Method: In this experiment, 4-week-old male mice of ddY line (10 individuals per one group) were used after fasting treatment for 24 hours.
After 60 minutes of the administration of each compound of the present invention, each mouse was subjected to ventrotomy under anesthesia with Nembutal® (Dainabot Co., Ltd.; 50 mg/kg, i.p.) to collect blood from abdominal aorta, and the collected blood sample was immediately checked for its oxygen partial pressure (PO₂) and carbon dioxide partial pressure (PCO₂) using a blood-aerotonometer (Model 170, Ciba-Corning).

[4] = system: male rats of SHR line; test: Blood pressure in SHR rats; type: in vivo; conditions: 10 mg/kg, p.o., 2 weeks
Method: In this experiment, 12-week-old male rats of SHR line (5 to 6 individuals per one group) were used after rearing them for 1 week with normal feed. Oral administration of each test drug has been carried out for 2 weeks and then blood pressure (mmHg) was measured using a small animal hemomanometer (UR-1000).

[5] = system: rats of diabetes mellitus; test: Blood sugar level in streptozotocin-induced diabetes mellitus; type: in vivo, male rats of Wistar line; conditions: 50 mg/kg
Method: In this experiment, 8-week-old male rats of Wistar line (5 individuals per one group) were used after rearing them for 1 week with normal feed. Streptozotocin (40 mg/kg) was administered by tail intravenous injection to obtain rats of diabetes mellitus. Beginning after 1 week of the streptozotocin administration, oral administration of each test drug has been carried out for 1 week, followed by 24 hours of fasting. Thereafter, blood sample was collected from lower abdominal vena cava under anesthesia with Nembutal® (1 ml/kg, i.p.). Serum samples were prepared from the thus collected blood samples and checked for their blood sugar levels, with the results shown in Table 9.

[6] = system: male rats of SD line; test: High cholesterol feed: blood viscosity, serum total cholesterol, triglyceride, GOT; type: in vivo; conditions: 100 mg/kg/day, p.o., 4 days
Method: In this experiment, 5-week-old male rats of SD line (5 individuals per one group) were used after rearing them for 1 week using normal feed, and each compound of the present invention (100 mg/kg) was administered orally once a day for 4 days. Simultaneously with the commencement of the administration, the normal feed was replaced by a high cholesterol feed. After completion of the administration, they were subjected to fasting treatment for 24 hours. Thereafter, each rat was subjected to ventrotomy under anesthesia with Nembutal® (Dainabot Co., Ltd.; 50 mg/kg, i.p.) to collect blood from abdominal aorta, and the collected blood sample was checked for its blood viscosity using a viscometer (Biolyzer, Tokyo Keiki Co., Ltd.). At the same time, total cholesterol (Wako Pure Chemical Industries, Ltd.; Cholesterol E-test wako), triglyceride (Wako Pure Chemical Industries, Ltd.; Triglyceride G-test wako) and GOT (Wako Pure Chemical Industries, Ltd.; GOT-UV test-wako) in serum samples were measured.

[7] = system: male SD rats; test: Thrombus formation in abdominal vena cava; type: in vivo; conditions: 30 mg/kg, p.o.; dry weight of thrombus
Method: Each of male SD rats of 130 to 210 g in body weight was anesthetized with Nembutal® (50 mg/kg, i.p.) and subjected to median incision ventrotomy to release about a 2 cm portion of abdominal vena cava below the renal vein. Blood flow of the thus released vena cava was temporarily stopped for 5 minutes with 8 hemostatic clips. After recirculating blood for 5 minutes by removing the hemostatic clips, […] was ligated at a position just below the renal vein and the median-incised part was sutured. Two hours after the ligature, the thus treated rat was again subjected to ventrotomy to excise abdominal vena cava. The thus excised blood vessel was cut open on a filter paper which had been moistened with physiological saline, in order to take out thrombus. The thrombus thus obtained was washed with physiological saline to remove adhered blood and the like substances and then dried at 80°C for 12 hours or longer to measure its dry weight. In this instance, each drug to be tested was orally administered 90 minutes before the clipping to examine its effect by single administration on the formation of thrombus. Separately from this, each test drug was administered to 6-week-old male SD rat continuously for 7 days, thrombus was prepared in the eighth day in the same manner as described above and dry weight of the thrombus was measured, in order to examine effect of the continuous 7 day administration on the thrombus formation.

[8] = system: male mice of ddY line; type: in vivo; conditions: 50 mg/kg, i.p., 60 minutes before KCN (3.0 mg/kg) tail intravenous injection; for Survival Time ±S.E.: time to respiratory arrest
[9] = i.o., administered for 1 week beginning 1 week after streptozotocin (40 mg/kg), serum

SMILES | Erythrocyte Deformation: Erythrocyte counts ±S.E. [1] | Survival Time ±S.E. [2] | Carbon Dioxide Partial Pressure [3] | Oxygen Partial Pressure [3] | Blood Pressure ±S.E. Average [4] | Blood Pressure ±S.E. Maximum [4] | Blood Sugar Level ± S.E. ([5]; 168 h) | GOT ±S.E. [6] | Total Cholesterol ±S.E. [6] | Triglyceride ±S.E. [6] | Antithrombotic Effect: Thrombus weight ±S.E. [7] | Lethality (%) [8] | Survival Time ±S.E. [8] | Blood Sugar Level ± S.E. [5, 9]
CC(CCC1OCC1CO)C1CCC2C3C(O)CC4CC(O)CCC4(C)C3CC(O)C12C [Example 3, (24R)-(25S)-(+)-24,26-epoxy-5β-cholestane-3α,7α,12α,27-tetrol] | 3.55 ± 0.66 × 10⁷ | 113.2 ± 5.28 s | 45.5 mmHg | 86.1 mmHg | 150 ± 3.7 mmHg | 200 ± 7.7 mmHg | 143 ± 6.9 mg/dL | 140 ± 10 IU/ℓ | 445 ± 65 mg/dL | 90 ± 39 mg/dL | 13.5 ± 1.22 mg | 80% | 107.3 ± 8.6 s | 
C[C@H](CC[C@H]1OC[C@H]1CO)[C@H]1CC[C@H]2[C@@H]3[C@H](O)C[C@@H]4C[C@H](O)CC[C@]4(C)[C@H]3C[C@H](O)[C@]12C [Example 4, (24R)-(25R)-(+)-24,26-epoxy-5β-cholestane-3α,7α,12α,27-tetrol] | 3.97 ± 0.39 × 10⁷ | 115.5 ± 3.88 s | 39.1 mmHg | 85.3 mmHg | 153 ± 2.8 mmHg | 205 ± 7.8 mmHg |  | 138 ± 9 IU/ℓ | 428 ± 49 mg/dL | 92 ± 45 mg/dL | 11.2 ± 3.81 mg | 80% | 98.1 ± 13.1 s | 181 ± 8.9 mg/dL
C[C@H](CC[C@@H](O)C1COC1)[C@H]1CC[C@H]2[C@@H]3[C@H](O)C[C@@H]4C[C@H](O)CC[C@]4(C)[C@H]3C[C@H](O)[C@]12C [Example 5, (24R)-(+)-26,27-epoxy-5β-cholestane-3α,7α,12α,24-tetrol] | 4.10 ± 0.55 × 10⁷ | 110.0 ± 5.10 s | 39.9 mmHg | 87.1 mmHg | 148 ± 3.5 mmHg | 181 ± 3.5 mmHg |  | 141 ± 13 IU/ℓ | 405 ± 99 mg/dL | 91 ± 33 mg/dL | 11.2 ± 3.12 mg | 80% | 99.5 ± 7.21 s | 122 ± 7.8 mg/dL
C[C@H](CCCC(CO)CO)[C@H]1CC[C@H]2[C@@H]3[C@H](O)C[C@@H]4C[C@H](O)CC[C@]4(C)[C@H]3C[C@H](O)[C@]12C [Example 6, 3α,7α,12α,26,27-pentahydroxy-5β-cholestane] | 3.81 ± 0.44 × 10⁷ | 127.5 ± 9.26 s | 40.3 mmHg | 83.5 mmHg | 131 ± 3.7 mmHg | 178 ± 3.3 mmHg |  | 143 ± 8 IU/ℓ | 391 ± 70 mg/dL | 99 ± 41 mg/dL | 13.5 ± 2.11 mg | 80% | 98.7 ± 8.81 s | 138 ± 6.8 mg/dL
C[C@H](CCCC(CO)CO)[C@H]1CC[C@H]2[C@@H]3[C@H](O)C[C@H]4C[C@H](O)CC[C@]4(C)[C@H]3C[C@H](O)[C@]12C [Example 7, 3α,7α,12α,26,27-pentahydroxy-5α-cholestane] | 4.02 ± 0.37 × 10⁷ | 121.5 ± 6.00 s | 41.1 mmHg | 81.1 mmHg | 155 ± 3.6 mmHg | 198 ± 3.7 mmHg |  | 138 ± 18 IU/ℓ | 385 ± 58 mg/dL | 92 ± 31 mg/dL | 12.2 ± 1.33 mg | 80% | 89 ± 9.99 s | 161 ± 5.5 mg/dL
C[C@H](CC[C@H](O)C(CO)CO)[C@H]1CC[C@H]2[C@@H]3[C@H](O)C[C@@H]4C[C@H](O)CC[C@]4(C)[C@H]3C[C@H](O)[C@]12C [Example 8, (24S)-3α,7α,12α,24,26,27-hexahydroxy-5β-cholestane] | 4.53 ± 0.82 × 10⁷ | 144.8 ± 10.27 s | 42.1 mmHg | 98.7 mmHg | 151 ± 9.5 mmHg | 180 ± 6.6 mmHg |  | 140 ± 13 IU/ℓ | 410 ± 40 mg/dL | 87 ± 15 mg/dL | 10.5 ± 1.43 mg | 70% | 123.0 ± 7.19 s | 112 ± 8.4 mg/dL

Reference: patent EP0489933A1, “BILE ALCOHOL AND DRUG CONTAINING THE SAME AS ACTIVE INGREDIENT” (TSUMURA CO., LTD., priority 1990, dated 1992)
